In patent US20240210412A1, “SULFONYL-TRIAZOLE COMPOUNDS USEFUL AS LIGANDS AND INHIBITORS OF PROSTAGLANDIN REDUCTASE 2” (University of Virginia Patent Foundation, priority 2021, published 2024):

Key:
Assay in all cases: SILAC LC-MS ABPP
Format in all cases: cell-based
Conditions in all cases: 25 μM 2 h, live DM93 cells
P53621 = biological target: T1, P53621 (Homo sapiens, UniProt P53621)
T1 construct: endogenous in cells; host or cells: DM93 cells (SILAC)
Procedure, shortened: (§1)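 DM93 SILAC cells, ligand 25 μM vs DMSO, 2 h; HHS-475 100 μM, 2 h; CuAAC desthiobiotin tag; 1:1 pool; trypsin; avidin enrichment; LC-MS/MS site quantification.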

P49792 = biological target: T2, P49792 (Homo sapiens, UniProt P49792)
T2 construct: endogenous in cells; host or cells: DM93 cells (SILAC)
Procedure, shortened: as §1

Q15020 = biological target: T3, Q15020 (Homo sapiens, UniProt Q15020)
T3 construct: performing SuTEx compound screening directly in cells; endogenous in cells; host or cells: DM93 cells (SILAC), soluble fraction
Procedure, shortened: as §1

P62993 = biological target: T4, P62993 (Homo sapiens, UniProt P62993)
T4 construct: performing SuTEx compound screening directly in cells; endogenous in cells; host or cells: DM93 cells (SILAC)
Procedure, shortened: as §1

P61326 = biological target: T5, P61326 (Homo sapiens, UniProt P61326)
T5 construct: performing SuTEx compound screening directly in cells; endogenous in cells; host or cells: DM93 cells (SILAC)
Procedure, shortened: as §1

P18206 = biological target: T6, P18206 (Homo sapiens, UniProt P18206)
T6 construct: Probe-modified proteins from the soluble fraction were conjugated to a desthiobiotin-azide tag; endogenous in cells; host or cells: DM93 (SILAC)
Procedure, shortened: as §1

Q9BWT3 = biological target: T7, Q9BWT3 (Homo sapiens, UniProt Q9BWT3)
T7 construct: endogenous in cells; host or cells: DM93 cells (SILAC), treated live; soluble proteome analysed
Procedure, shortened: as §1

Q92804 = biological target: T8, Q92804 (Homo sapiens, UniProt Q92804)
T8 construct: endogenous in cells; host or cells: DM93 cells (SILAC), live-cell treatment
Procedure, shortened: as §1

Q14914 = biological target: T9, Q14914 (Homo sapiens, UniProt Q14914)
T9 construct: performing SuTEx compound screening directly in cells; endogenous in cells; host or cells: DM93 cells (SILAC), soluble fraction
Procedure, shortened: as §1

O75351 = biological target: T10, O75351 (Homo sapiens, UniProt O75351)
T10 construct: endogenous in cells; host or cells: DM93
Procedure, shortened: as §1

P12268 = biological target: T11, P12268 (Homo sapiens, UniProt P12268)
T11 construct: endogenous in cells; host or cells: DM93 cells (SILAC)
Procedure, shortened: as §1

P50851 = biological target: T12, P50851 (Homo sapiens, UniProt P50851)
T12 construct: Probe-modified proteins from the soluble fraction were conjugated to a desthiobiotin-azide tag; endogenous in cells; host or cells: DM93 cells (SILAC)
Procedure, shortened: as §1

P26358 = biological target: T13, P26358 (Homo sapiens, UniProt P26358)
T13 construct: endogenous in cells; host or cells: DM93 (SILAC)
Procedure, shortened: as §1

Q12965 = biological target: T14, Q12965 (Homo sapiens, UniProt Q12965)
T14 construct: performing SuTEx compound screening directly in cells; endogenous in cells; host or cells: DM93 cells (SILAC)
Procedure, shortened: as §1

P31948 = biological target: T15, P31948 (Homo sapiens, UniProt P31948)
T15 construct: endogenous in cells; host or cells: DM93 (SILAC)
Procedure, shortened: as §1

P49585 = biological target: T16, P49585 (Homo sapiens, UniProt P49585)
T16 construct: endogenous in cells; host or cells: DM93 cells (SILAC)
Procedure, shortened: as §1

Q7Z6E9 = biological target: T17, Q7Z6E9 (Homo sapiens, UniProt Q7Z6E9)
T17 construct: endogenous in cells; host or cells: DM93 cells (SILAC), live-cell treatment
Procedure, shortened: as §1

T2 sequence (P49792 whole entry): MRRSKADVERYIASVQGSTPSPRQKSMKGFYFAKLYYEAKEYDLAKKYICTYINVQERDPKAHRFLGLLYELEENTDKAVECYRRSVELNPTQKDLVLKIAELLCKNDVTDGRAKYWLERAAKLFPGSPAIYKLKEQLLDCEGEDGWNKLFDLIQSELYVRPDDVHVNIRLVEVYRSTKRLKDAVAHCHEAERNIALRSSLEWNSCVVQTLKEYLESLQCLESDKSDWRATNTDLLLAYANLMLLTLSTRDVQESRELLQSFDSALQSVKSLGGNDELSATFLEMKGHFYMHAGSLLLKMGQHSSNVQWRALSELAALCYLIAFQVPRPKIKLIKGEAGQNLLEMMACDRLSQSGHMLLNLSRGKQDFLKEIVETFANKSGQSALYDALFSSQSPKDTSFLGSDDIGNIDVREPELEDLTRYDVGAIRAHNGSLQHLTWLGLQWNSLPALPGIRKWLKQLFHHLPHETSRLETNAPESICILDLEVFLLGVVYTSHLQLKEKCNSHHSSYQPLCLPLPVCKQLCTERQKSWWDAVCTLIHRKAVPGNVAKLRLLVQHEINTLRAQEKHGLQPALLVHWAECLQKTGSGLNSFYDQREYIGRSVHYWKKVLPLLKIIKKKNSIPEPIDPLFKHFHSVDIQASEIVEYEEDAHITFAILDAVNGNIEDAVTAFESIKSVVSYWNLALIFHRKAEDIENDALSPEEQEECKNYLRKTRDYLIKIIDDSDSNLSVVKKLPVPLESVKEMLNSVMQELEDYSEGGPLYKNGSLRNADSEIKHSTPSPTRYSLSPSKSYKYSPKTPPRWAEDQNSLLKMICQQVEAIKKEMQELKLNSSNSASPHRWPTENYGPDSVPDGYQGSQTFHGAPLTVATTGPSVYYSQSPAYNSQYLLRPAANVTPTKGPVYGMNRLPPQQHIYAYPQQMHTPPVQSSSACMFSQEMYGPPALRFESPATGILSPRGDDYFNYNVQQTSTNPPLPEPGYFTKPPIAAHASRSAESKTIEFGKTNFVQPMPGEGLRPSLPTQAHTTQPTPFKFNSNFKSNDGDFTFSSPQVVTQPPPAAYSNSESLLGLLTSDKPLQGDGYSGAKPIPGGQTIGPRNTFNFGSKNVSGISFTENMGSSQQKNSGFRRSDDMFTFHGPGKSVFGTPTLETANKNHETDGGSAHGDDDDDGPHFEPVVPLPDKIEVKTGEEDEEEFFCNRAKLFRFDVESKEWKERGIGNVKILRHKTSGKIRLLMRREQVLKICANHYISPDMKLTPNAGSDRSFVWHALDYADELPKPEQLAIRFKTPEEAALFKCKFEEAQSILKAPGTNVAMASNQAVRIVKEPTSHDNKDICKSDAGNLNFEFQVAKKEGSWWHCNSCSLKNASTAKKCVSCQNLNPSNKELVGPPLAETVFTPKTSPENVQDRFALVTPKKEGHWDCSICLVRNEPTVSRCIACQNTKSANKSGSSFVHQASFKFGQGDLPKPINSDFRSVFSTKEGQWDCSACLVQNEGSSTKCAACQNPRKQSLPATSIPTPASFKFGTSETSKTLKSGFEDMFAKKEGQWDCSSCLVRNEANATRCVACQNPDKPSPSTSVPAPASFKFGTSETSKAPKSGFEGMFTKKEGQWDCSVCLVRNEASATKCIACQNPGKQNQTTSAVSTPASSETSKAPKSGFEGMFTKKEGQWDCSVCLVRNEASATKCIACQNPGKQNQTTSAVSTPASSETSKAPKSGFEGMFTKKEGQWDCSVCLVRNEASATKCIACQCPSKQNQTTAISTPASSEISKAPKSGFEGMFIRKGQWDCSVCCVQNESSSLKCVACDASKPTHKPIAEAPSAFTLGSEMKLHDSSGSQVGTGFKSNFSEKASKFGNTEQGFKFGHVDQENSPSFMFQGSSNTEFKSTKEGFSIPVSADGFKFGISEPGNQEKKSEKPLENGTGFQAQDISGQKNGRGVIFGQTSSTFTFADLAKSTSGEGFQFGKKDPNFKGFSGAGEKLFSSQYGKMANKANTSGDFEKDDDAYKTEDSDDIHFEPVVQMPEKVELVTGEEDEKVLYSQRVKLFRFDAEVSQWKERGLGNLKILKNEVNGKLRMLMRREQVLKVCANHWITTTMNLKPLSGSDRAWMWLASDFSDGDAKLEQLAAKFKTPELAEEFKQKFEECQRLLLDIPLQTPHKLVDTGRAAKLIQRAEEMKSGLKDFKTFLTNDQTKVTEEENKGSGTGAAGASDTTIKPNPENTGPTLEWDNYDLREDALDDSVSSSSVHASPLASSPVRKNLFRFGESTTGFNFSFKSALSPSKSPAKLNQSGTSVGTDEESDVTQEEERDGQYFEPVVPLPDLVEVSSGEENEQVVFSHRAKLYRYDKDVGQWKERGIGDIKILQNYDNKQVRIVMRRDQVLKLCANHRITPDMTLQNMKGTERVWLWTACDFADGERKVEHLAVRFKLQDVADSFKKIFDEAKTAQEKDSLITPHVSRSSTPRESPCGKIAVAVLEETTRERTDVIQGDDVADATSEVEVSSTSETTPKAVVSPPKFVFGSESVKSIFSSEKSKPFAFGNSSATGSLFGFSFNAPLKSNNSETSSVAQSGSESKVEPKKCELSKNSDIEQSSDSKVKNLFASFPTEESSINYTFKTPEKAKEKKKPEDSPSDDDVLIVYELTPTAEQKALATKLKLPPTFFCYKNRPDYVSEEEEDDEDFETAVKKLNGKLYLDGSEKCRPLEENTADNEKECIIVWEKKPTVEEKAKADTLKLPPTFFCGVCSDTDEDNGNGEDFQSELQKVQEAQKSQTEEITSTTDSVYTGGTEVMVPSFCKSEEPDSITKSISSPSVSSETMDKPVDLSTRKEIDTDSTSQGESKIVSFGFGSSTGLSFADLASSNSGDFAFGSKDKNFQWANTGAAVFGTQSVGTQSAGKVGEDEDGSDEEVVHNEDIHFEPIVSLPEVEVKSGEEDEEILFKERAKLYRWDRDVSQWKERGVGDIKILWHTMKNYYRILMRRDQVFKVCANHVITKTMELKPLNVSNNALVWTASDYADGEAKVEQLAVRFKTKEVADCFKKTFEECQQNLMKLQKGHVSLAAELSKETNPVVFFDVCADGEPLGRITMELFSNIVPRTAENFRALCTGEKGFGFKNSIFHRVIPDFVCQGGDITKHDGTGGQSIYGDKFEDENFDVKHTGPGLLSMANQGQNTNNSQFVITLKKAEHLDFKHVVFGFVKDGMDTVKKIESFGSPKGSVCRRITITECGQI
T14 sequence (Q12965 whole entry): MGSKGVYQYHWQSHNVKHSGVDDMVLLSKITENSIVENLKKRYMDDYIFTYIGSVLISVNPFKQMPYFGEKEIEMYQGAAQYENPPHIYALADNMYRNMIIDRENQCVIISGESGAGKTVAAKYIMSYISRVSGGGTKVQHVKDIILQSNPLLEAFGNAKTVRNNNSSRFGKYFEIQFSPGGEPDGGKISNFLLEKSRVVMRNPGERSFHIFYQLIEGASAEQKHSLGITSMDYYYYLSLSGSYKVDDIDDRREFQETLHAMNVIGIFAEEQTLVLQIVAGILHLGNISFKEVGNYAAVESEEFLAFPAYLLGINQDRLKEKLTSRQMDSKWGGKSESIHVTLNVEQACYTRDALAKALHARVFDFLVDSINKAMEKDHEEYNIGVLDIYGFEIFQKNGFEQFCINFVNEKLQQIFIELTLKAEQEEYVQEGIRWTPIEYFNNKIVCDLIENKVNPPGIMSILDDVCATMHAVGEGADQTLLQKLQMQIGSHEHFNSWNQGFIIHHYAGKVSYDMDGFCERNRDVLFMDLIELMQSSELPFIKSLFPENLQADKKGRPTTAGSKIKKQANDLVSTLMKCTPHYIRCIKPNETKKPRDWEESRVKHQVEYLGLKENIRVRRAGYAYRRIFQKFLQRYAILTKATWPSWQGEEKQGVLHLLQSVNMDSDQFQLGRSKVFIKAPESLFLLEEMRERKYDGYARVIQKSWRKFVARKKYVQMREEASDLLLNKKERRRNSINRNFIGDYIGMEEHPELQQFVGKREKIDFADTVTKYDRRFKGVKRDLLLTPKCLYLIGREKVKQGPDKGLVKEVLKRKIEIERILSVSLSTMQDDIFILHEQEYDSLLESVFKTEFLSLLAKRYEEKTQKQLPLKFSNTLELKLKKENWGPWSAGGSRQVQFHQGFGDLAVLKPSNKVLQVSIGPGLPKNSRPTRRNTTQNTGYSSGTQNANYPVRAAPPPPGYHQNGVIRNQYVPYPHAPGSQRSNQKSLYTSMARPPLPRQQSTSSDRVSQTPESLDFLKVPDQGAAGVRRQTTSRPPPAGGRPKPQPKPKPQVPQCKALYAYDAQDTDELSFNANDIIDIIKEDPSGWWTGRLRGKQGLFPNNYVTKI
T15 sequence (P31948 whole entry): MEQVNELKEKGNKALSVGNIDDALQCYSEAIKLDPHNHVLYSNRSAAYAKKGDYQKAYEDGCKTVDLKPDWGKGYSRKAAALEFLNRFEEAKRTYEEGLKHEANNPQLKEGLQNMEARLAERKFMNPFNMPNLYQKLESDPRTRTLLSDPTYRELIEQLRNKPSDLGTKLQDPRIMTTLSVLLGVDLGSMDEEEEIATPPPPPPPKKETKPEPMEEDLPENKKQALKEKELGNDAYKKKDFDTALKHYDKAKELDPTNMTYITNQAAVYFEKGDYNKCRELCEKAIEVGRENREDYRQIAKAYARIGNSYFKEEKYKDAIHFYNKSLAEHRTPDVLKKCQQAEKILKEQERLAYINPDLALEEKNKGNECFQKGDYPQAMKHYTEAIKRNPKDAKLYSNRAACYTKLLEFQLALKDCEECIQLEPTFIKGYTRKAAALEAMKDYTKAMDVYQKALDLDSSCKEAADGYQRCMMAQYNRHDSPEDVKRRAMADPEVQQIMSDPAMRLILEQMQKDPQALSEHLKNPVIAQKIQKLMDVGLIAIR
T5 sequence (P61326 whole entry): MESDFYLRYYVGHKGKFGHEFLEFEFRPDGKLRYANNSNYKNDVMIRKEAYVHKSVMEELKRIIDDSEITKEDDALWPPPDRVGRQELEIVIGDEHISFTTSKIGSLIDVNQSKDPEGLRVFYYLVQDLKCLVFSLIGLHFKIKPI

O=C(NC1CC1)c1ccc(S(=O)(=O)n2cncn2)cc1 [HHS-0101, 4-((1H-1,2,4-triazol-1-yl)sulfonyl)-N-cyclopropylbenzamide]
liganded tyrosine site 628 (P53621): HHS0101.Y|HHS0401.Y|HHS0701.Y (tyrosine sites that showed >80% reductions (SR >5) in probe labeling in cells treated with compounds (liganded sites)) | liganded tyrosine site 1983 (P49792): HHS0101.Y (tyrosine sites that showed >80% reductions (SR >5) in probe labeling in cells treated with compounds (liganded sites)) | liganded tyrosine site 541 (Q15020): HHS0101.Y|HHS0201.Y|HHS0301.Y|HHS0401.Y|HHS0701.Y (tyrosine sites that showed >80% reductions (SR >5) in probe labeling in cells treated with compounds (liganded sites))

O=C(NCC1CC1)c1ccc(S(=O)(=O)n2cncn2)cc1 [HHS-0201, 4-((1H-1,2,4-triazol-1-yl)sulfonyl)-N-(cyclopropylmethyl)benzamide]
liganded tyrosine site 160 (P62993): HHS0201.Y (tyrosine sites that showed >80% reductions (SR >5) in probe labeling in cells treated with compounds (liganded sites)) | liganded tyrosine site 34 (P61326): HHS0201.Y (tyrosine sites that showed >80% reductions (SR >5) in probe labeling in cells treated with compounds (liganded sites)) | liganded tyrosine site 100 (P18206): HHS0201.Y|HHS0301.Y (tyrosine sites that showed >80% reductions (SR >5) in probe labeling in cells treated with compounds (liganded sites)) | liganded tyrosine site 326 (Q9BWT3): HHS0201.Y|HHS0701.Y (tyrosine sites that showed >80% reductions (SR >5) in probe labeling in cells treated with compounds (liganded sites)) | liganded tyrosine site 170 (Q92804): HHS0201.Y|HHS0301.Y (tyrosine sites that showed >80% reductions (SR >5) in probe labeling in cells treated with compounds (liganded sites))

O=C(NCc1ccccc1)c1ccc(S(=O)(=O)n2cncn2)cc1 [HHS-0401, 4-((1H-1,2,4-triazol-1-yl)sulfonyl)-N-benzylbenzamide]
liganded tyrosine site 262 (Q14914): HHS0401.Y (tyrosine sites that showed >80% reductions (SR >5) in probe labeling in cells treated with compounds (liganded sites)) | liganded tyrosine site 47 (O75351): HHS0401.Y (tyrosine sites that showed >80% reductions (SR >5) in probe labeling in cells treated with compounds (liganded sites)) | liganded tyrosine site 233 (P12268): HHS0401.Y (tyrosine sites that showed >80% reductions (SR >5) in probe labeling in cells treated with compounds (liganded sites)) | liganded tyrosine site 2656 (P50851): HHS0401.Y (tyrosine sites that showed >80% reductions (SR >5) in probe labeling in cells treated with compounds (liganded sites)) | liganded tyrosine site 367 (P26358): HHS0401.Y (tyrosine sites that showed >80% reductions (SR >5) in probe labeling in cells treated with compounds (liganded sites))

O=C(NC1CCCCC1)c1ccc(S(=O)(=O)n2cncn2)cc1 [HHS-0301, 4-((1H-1,2,4-triazol-1-yl)sulfonyl)-N-cyclohexylbenzamide]
liganded tyrosine site 9 (Q12965): HHS0301.Y (tyrosine sites that showed >80% reductions (SR >5) in probe labeling in cells treated with compounds (liganded sites)) | liganded tyrosine site 134 (P31948): HHS0301.Y (tyrosine sites that showed >80% reductions (SR >5) in probe labeling in cells treated with compounds (liganded sites)) | liganded tyrosine site 173 (P49585): HHS0301.Y (tyrosine sites that showed >80% reductions (SR >5) in probe labeling in cells treated with compounds (liganded sites)) | liganded tyrosine site 218 (Q7Z6E9): HHS0301.Y (tyrosine sites that showed >80% reductions (SR >5) in probe labeling in cells treated with compounds (liganded sites))
